Reference: US20240225981A1, “Synthesized Molecule of Solketal Esters from Palm Kit Oil and Glycerin for Cosmetic and Agricultural Formulations” (BRASIL BIO FUELS S.A, priority 2023, published 2024)
“Also recorded” adds a separate entry of the source.

Columns and labels:
skin = test: Skin irritation tests (OECD and GHS); format: in vivo; conditions: OECD and GHS standards; non-irritating in 2 tests, one test mild
Source text: Two new batches of cocoyl glyceryl solketal were sent to confirm dermal irritation tests.

eye = test: Eye irritation tests (OECD and GHS); format: in vivo; conditions: OECD and GHS standards
Source text: In eye irritation tests, the product was classified as non-irritating according to OECD and GHS standards.

Cocoyl glyceryl solketal
Skin irritation classification (skin): non-irritating; also recorded: mild dermal irritation | Eye irritation classification (eye): non-irritating
